Our source for the Ki values is ChEMBL document CHEMBL1143346, “Solid-phase parallel synthesis and SAR of 4-amidofuran-3-one inhibitors of cathepsin S: effect of sulfonamides P3 substituents on potency and selectivity” (Bioorg Med Chem, 2009).

SMILES strings stand for the structures. pKi: −log10 of the molar value.

For one test, the target named is Procathepsin L (Homo sapiens, UniProt P07711). As to the kind of experiment: Inhibition of human cathepsin L by fluorescence assay.
In another test the target is T1, Cathepsin K (Homo sapiens, UniProt P43235).
T1 sequence (P43235 whole entry): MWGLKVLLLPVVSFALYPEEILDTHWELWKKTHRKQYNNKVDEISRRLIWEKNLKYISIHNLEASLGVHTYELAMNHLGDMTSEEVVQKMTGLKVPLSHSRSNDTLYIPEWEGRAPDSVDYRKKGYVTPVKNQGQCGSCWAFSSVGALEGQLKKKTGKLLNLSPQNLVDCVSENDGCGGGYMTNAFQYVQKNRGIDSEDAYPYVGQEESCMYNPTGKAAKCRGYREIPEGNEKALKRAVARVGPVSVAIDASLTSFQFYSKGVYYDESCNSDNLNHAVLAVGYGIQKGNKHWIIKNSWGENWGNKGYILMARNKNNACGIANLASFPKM
As to the kind of experiment: Inhibition of human recombinant cathepsin K expressed in baculovirus by fluorescence assay.

Another test addresses Cathepsin S (Homo sapiens, UniProt P25774). Kind of test: Inhibition of human recombinant cathepsin S expressed in baculovirus by fluorescence assay.

Broadly, the pKi is the negative decadic logarithm of the Ki, by convention in mol/L.

Procathepsin L, sequence (P07711 whole entry): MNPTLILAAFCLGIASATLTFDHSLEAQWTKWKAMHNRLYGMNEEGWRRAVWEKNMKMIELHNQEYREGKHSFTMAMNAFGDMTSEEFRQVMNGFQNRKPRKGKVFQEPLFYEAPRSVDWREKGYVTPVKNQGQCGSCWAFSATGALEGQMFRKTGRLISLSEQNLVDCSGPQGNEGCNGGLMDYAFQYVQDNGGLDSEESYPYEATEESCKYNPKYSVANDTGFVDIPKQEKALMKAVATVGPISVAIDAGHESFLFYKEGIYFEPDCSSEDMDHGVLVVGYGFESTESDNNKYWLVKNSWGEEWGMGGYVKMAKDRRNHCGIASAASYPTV
Cathepsin S, sequence (P25774 whole entry): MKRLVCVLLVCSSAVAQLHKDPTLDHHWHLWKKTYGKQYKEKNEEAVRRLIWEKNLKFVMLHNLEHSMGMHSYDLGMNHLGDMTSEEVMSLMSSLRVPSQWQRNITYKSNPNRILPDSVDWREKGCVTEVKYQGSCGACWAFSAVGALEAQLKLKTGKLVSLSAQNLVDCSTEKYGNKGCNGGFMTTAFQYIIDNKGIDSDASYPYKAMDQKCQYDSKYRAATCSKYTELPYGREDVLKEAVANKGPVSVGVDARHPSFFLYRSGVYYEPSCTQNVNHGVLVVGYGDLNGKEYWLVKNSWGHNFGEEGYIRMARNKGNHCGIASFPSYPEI

As for `CC[C@@H]1OCC(=O)[C@H]1NC(=O)[C@H](CC1(C)CCCC1)NC(=O)c1ccc(NS(=O)(=O)c2cnccc2C)cc1`, the pKi at Procathepsin L was 5.06; at Cathepsin K, 6.59; at Cathepsin S it was 9.05.
For `CC[C@@H]1OCC(=O)[C@H]1NC(=O)[C@H](CC1(C)CCCC1)NC(=O)c1ccc(NS(=O)(=O)c2ccccc2)c(C)c1`, the pKi on Procathepsin L is 5.64; on Cathepsin K, 6.14; at Cathepsin S it was 8.40.
The like results for `CC[C@@H]1OCC(=O)[C@H]1NC(=O)[C@H](CC1(C)CCCC1)NC(=O)c1ccc(NS(=O)(=O)c2ccccc2)c(Cl)c1` were, in that order, 5.96, 5.80 and 7.92.
Consider `CC[C@@H]1OCC(=O)[C@H]1NC(=O)[C@H](CC1(C)CCCC1)NC(=O)c1ccc(NS(=O)(=O)c2nc(C(C)C)cs2)cc1`, for which the results for the negative logarithm of the Ki (pKi) at Procathepsin L, on Cathepsin K and on Cathepsin S were 5.04, 5.77 and 8.24, respectively.
With `CC[C@@H]1OCC(=O)[C@H]1NC(=O)[C@H](CC1(C)CCCC1)NC(=O)c1ccc(NS(=O)(=O)c2sc(C)nc2C)cc1`, the values for the pKi on Procathepsin L, at Cathepsin K and at Cathepsin S were 4.80, 5.74 and 9.15, respectively.
As to `CC[C@@H]1OCC(=O)[C@H]1NC(=O)[C@H](CC1(C)CCCC1)NC(=O)c1ccc(NS(=O)(=O)c2ccc(F)cc2)cc1`, the pKi at Procathepsin L was 5.23; at Cathepsin K it was 6.43; on Cathepsin S, 8.70.
As to `CC[C@@H]1OCC(=O)[C@H]1NC(=O)[C@H](CC1(C)CCCC1)NC(=O)c1ccc(NS(=O)(=O)c2cccc(F)c2)cc1`, the pKi at Procathepsin L is 5.11; at Cathepsin K, 6.28; at Cathepsin S, 8.47.
Regarding `CC[C@@H]1OCC(=O)[C@H]1NC(=O)[C@H](CC1(C)CCCC1)NC(=O)c1ccc(NS(=O)(=O)Cc2ccccc2)cc1`, the values for the pKi at Procathepsin L, on Cathepsin K and on Cathepsin S were 4.82, 5.77 and 7.51, respectively.
Take `CC[C@@H]1OCC(=O)[C@H]1NC(=O)[C@H](CC1(C)CCCC1)NC(=O)c1ccc(NS(=O)(=O)c2ccccc2C)cc1`: the pKi on Procathepsin L is 5.08; on Cathepsin K it was 6.26; on Cathepsin S it was 8.41.
For `CC[C@@H]1OCC(=O)[C@H]1NC(=O)[C@H](CC1(C)CCCC1)NC(=O)c1ccc(NS(=O)(=O)c2ccc(N)cc2)cc1` the same measures were 5.04, 6.02 and 8.89.
Regarding `CC[C@@H]1OCC(=O)[C@H]1NC(=O)[C@H](CC1(C)CCCC1)NC(=O)c1ccc(NS(=O)(=O)c2ccc(OC)cc2)cc1`, the pKi was 4.96 on Procathepsin L, 6.30 at Cathepsin K and 8.48 on Cathepsin S.
For `CC[C@@H]1OCC(=O)[C@H]1NC(=O)[C@H](CC1(C)CCCC1)NC(=O)c1ccc(NS(=O)(=O)c2cccc(OC)c2)cc1` the same measures were 4.85, 6.57 and 9.00.
Consider `CC[C@@H]1OCC(=O)[C@H]1NC(=O)[C@H](CC1(C)CCCC1)NC(=O)c1ccc(NS(C)(=O)=O)cc1OC`, for which the pKi at Procathepsin L was 4.54; on Cathepsin K, 5.30; at Cathepsin S, 6.48.
For `CC[C@@H]1OCC(=O)[C@H]1NC(=O)[C@H](CC1(C)CCCC1)NC(=O)c1ccc(NS(C)(=O)=O)c(C)c1` the same measures were 5.70, 6.62 and 8.31.
The like results for `CC[C@@H]1OCC(=O)[C@H]1NC(=O)[C@H](CC1(C)CCCC1)NC(=O)c1ccc(NS(=O)(=O)C2CC2)cc1` were, in that order, 4.92, 6.36 and 8.62.
The like results for `CC[C@@H]1OCC(=O)[C@H]1NC(=O)[C@H](CC1(C)CCCC1)NC(=O)c1ccc(NS(=O)(=O)CC)cc1` were, in that order, 4.77, 6.33 and 8.72.
On to `CC[C@@H]1OCC(=O)[C@H]1NC(=O)[C@H](CC1(C)CCCC1)NC(=O)c1ccc(NS(C)(=O)=O)c(OC)c1`, for which the pKi is 5.14 on Procathepsin L, 6.25 at Cathepsin K and 7.59 at Cathepsin S.
The like results for `CC[C@@H]1OCC(=O)[C@H]1NC(=O)[C@H](CC1(C)CCCC1)NC(=O)c1ccc(NS(=O)(=O)c2cccnc2)cc1` were, in that order, 4.85, 6.24 and 8.68.
For `CC[C@@H]1OCC(=O)[C@H]1NC(=O)[C@H](CC1(C)CCCC1)NC(=O)c1ccc(NS(=O)(=O)c2ccccn2)cc1` the same measures were 4.89, 6.35 and 8.64.
The like results for `CC[C@@H]1OCC(=O)[C@H]1NC(=O)[C@H](CC1(C)CCCC1)NC(=O)c1ccc(NS(C)(=O)=O)c(F)c1` were, in that order, 5.11, 6.15 and 7.80.
Regarding `CC[C@@H]1OCC(=O)[C@H]1NC(=O)[C@H](CC1(C)CCCC1)NC(=O)c1ccc(NS(C)(=O)=O)c(C(C)=O)c1`, the pKi is 5.02 on Procathepsin L, 6.12 on Cathepsin K and 7.24 on Cathepsin S.
On to `CC[C@@H]1OCC(=O)[C@H]1NC(=O)[C@H](CC1(C)CCCC1)NC(=O)c1ccc(NS(=O)(=O)c2ccncc2)cc1`, for which the negative logarithm of the Ki (pKi) at Procathepsin L was 4.89; at Cathepsin K, 5.96; at Cathepsin S, 8.57.
For `CC[C@@H]1OCC(=O)[C@H]1NC(=O)[C@H](CC1(C)CCCC1)NC(=O)c1ccc(NS(=O)(=O)c2nc(C)cs2)cc1` the same measures were 4.57, 5.52 and 7.89.
For `CC[C@@H]1OCC(=O)[C@H]1NC(=O)[C@H](CC1(C)CCCC1)NC(=O)c1ccc(NS(=O)(=O)c2ncc(C)s2)cc1` the same measures were 4.77, 5.64 and 8.07.
For `CC[C@@H]1OCC(=O)[C@H]1NC(=O)[C@H](CC1(C)CCCC1)NC(=O)c1ccc(NS(=O)(=O)C2CCCCC2)cc1` the same measures were 4.19, 6.02 and 6.74.
For `CC[C@@H]1OCC(=O)[C@H]1NC(=O)[C@H](CC1(C)CCCC1)NC(=O)c1ccc(NS(=O)(=O)c2cccs2)cc1`, the results for the pKi on Procathepsin L, on Cathepsin K and on Cathepsin S were 4.89, 6.00 and 8.64, respectively.
The like results for `CC[C@@H]1OCC(=O)[C@H]1NC(=O)[C@H](CC1(C)CCCC1)NC(=O)c1ccc(NS(=O)(=O)C(C)C)cc1` were, in that order, 4.82, 6.30 and 8.54.
As for `CC[C@@H]1OCC(=O)[C@H]1NC(=O)[C@H](CC1(C)CCCC1)NC(=O)c1ccc(NS(=O)(=O)c2ccccc2)cc1`, the pKi on Procathepsin L was 4.96; on Cathepsin K, 6.37; at Cathepsin S it was 9.10.
Take `CC[C@@H]1OCC(=O)[C@H]1NC(=O)[C@H](CC1(C)CCCC1)NC(=O)c1ccc(NS(=O)(=O)c2ccc(C#N)cc2)cc1`: the pKi at Procathepsin L was 5.10; at Cathepsin K, 6.02; at Cathepsin S it was 8.96.
For `CC[C@@H]1OCC(=O)[C@H]1NC(=O)[C@H](CC1(C)CCCC1)NC(=O)c1ccc(NS(=O)(=O)c2ccccc2C#N)cc1`, the figures for the pKi at Procathepsin L, at Cathepsin K and on Cathepsin S were 5.07, 6.09 and 9.10, respectively.
Turning to `CC[C@@H]1OCC(=O)[C@H]1NC(=O)[C@H](CC1(C)CCCC1)NC(=O)c1ccc(NS(=O)(=O)c2cccnc2Cl)cc1`, the pKi at Procathepsin L was 4.64; at Cathepsin K, 6.10; at Cathepsin S it was 8.23.
For the molecule `CC[C@@H]1OCC(=O)[C@H]1NC(=O)[C@H](CC1(C)CCCC1)NC(=O)c1ccc(NS(=O)(=O)c2ccccc2F)cc1`, the figures for the pKi at Procathepsin L, on Cathepsin K and on Cathepsin S were 4.96, 6.01 and 8.42, respectively.
Turning to `CC[C@@H]1OCC(=O)[C@H]1NC(=O)[C@H](CC1(C)CCCC1)NC(=O)c1ccc(NS(=O)(=O)c2cccc(C#N)c2)cc1`, the figures for the pKi at Procathepsin L, at Cathepsin K and at Cathepsin S were 5.17, 6.14 and 9.22, respectively.
For the molecule `CC[C@@H]1OCC(=O)[C@H]1NC(=O)[C@H](CC1(C)CCCC1)NC(=O)c1ccc(NS(C)(=O)=O)cc1C`, the pKi is 4.64 on Procathepsin L, 5.72 at Cathepsin K and 7.52 at Cathepsin S.
For `CC[C@@H]1OCC(=O)[C@H]1NC(=O)[C@H](CC1(C)CCCC1)NC(=O)c1ccc(NS(=O)(=O)c2ccccc2)nc1` the same measures were 4.51, 5.66 and 7.25.
For the molecule `CCCCS(=O)(=O)Nc1ccc(C(=O)N[C@@H](CC2(C)CCCC2)C(=O)N[C@@H]2C(=O)CO[C@H]2CC)cc1`, the values for the pKi at Procathepsin L, on Cathepsin K and on Cathepsin S were 4.68, 5.82 and 8.47, respectively.
Consider `CC[C@@H]1OCC(=O)[C@H]1NC(=O)[C@H](CC1(C)CCCC1)NC(=O)c1ccc(NS(C)(=O)=O)c(Cl)c1`, for which the pKi on Procathepsin L was 6.01; at Cathepsin K, 6.08; on Cathepsin S, 8.25.
Regarding `CC[C@@H]1OCC(=O)[C@H]1NC(=O)[C@H](CC1(C)CCCC1)NC(=O)c1ccc(NS(=O)(=O)c2nccn2C)cc1`, the figures for the pKi on Procathepsin L, on Cathepsin K and at Cathepsin S were 4.62, 6.19 and 8.35, respectively.
For `CC[C@@H]1OCC(=O)[C@H]1NC(=O)[C@H](CC1(C)CCCC1)NC(=O)c1ccc(NS(=O)(=O)C(F)(F)F)cc1` the same measures were 4.82, 5.92 and 8.08.
As to `CC[C@@H]1OCC(=O)[C@H]1NC(=O)[C@H](CC1(C)CCCC1)NC(=O)c1ccc(NS(C)(=O)=O)nc1`, the values for the pKi on Procathepsin L, at Cathepsin K and at Cathepsin S were 4.85, 5.92 and 7.20, respectively.
For `CC[C@@H]1OCC(=O)[C@H]1NC(=O)[C@H](CC1(C)CCCC1)NC(=O)c1ccc(NS(=O)(=O)N(C)C)cc1` the same measures were 4.80, 6.52 and 8.28.
